For assay [1], the target named is Induced myeloid leukemia cell differentiation protein Mcl-1 (Homo sapiens, UniProt Q07820). In words: Inhibition of recombinant His6-tagged MCL1 (171-326) expressed in Escherichia coli BL21 (DE3) and Flu-Bak peptide interaction by fluorescence polarization assay.
For another assay, the system named is Jurkat. The assay can be described thus: Cytotoxicity against human Jurkat cells after 48 hrs by cell titer-blue assay. Type of assay: functional, cell-based.
The next assay relates to MCF7. The assay can be described thus: Cytotoxicity against human MCF7 cells after 48 hrs by cell titer-blue assay. Type of assay: functional, cell-based. The note with it: MCF7, 48 h.
The next assay concerns the target Bcl-2-like protein 1 (Homo sapiens, UniProt Q07817). The assay can be described thus: Inhibition of recombinant His6-tagged Bcl-XL expressed in Escherichia coli BL21 (DE3) and Flu-Bak peptide interaction by fluorescence polarization assay.
Assay [2] can be described thus: Cytotoxicity against mouse Hepa-1c1c7 cells after 48 hrs by cell titer-blue assay. The note with it: Hepa-1c1c7, 48 h. Type of assay: functional, cell-based.
The test system of assay [3] is NALM-6. The assay can be described thus: Cytotoxicity against human NALM6 cells after 48 hrs by cell titer-blue assay. Type of assay: functional, cell-based.
Assay [4] deals with NALM-6. The assay can be described thus: Induction of apoptosis in human NALM6 cells assessed as PARP cleavage at 3.125 to 25 uM after 24 hrs. Type of assay: functional, cell-based.
Assay [5] has as its system NALM-6. In words: Induction of apoptosis in human NALM6 cells assessed as caspase 3/7 activation at 0.4 to 100 uM after 24 hrs by fluorescence assay. Type of assay: functional, cell-based.
A further assay concerns DU-145. The assay can be described thus: Cytotoxicity against human DU145 cells after 48 hrs by cell titer-blue assay. Type of assay: functional, cell-based. The settings on record: DU-145, 48 h.
For the next assay, the system named is REH. The assay can be described thus: Cytotoxicity against human REH cells after 48 hrs by cell titer-blue assay. It is filed as functional, cell-based.
Another assay has as its system NCI-H460. The assay can be described thus: Cytotoxicity against human H460 cells after 48 hrs by cell titer-blue assay. It is filed as functional, cell-based. The settings on record: NCI-H460, 48 h.
A further assay relates to HCT-116. In words: Cytotoxicity against human HCT116 cells after 48 hrs by cell titer-blue assay. Type of assay: functional, cell-based. The note with it: HCT-116, 48 h.
Assay [6] can be described thus: Cytotoxicity against human SU-8686 cells after 48 hrs by cell titer-blue assay. Type of assay: functional, cell-based. The settings on record: SU.86.86, 48 h.
The test system of assay [7] is CCRF-CEM. The assay can be described thus: Ratio of GI50 for human CCRF-CEM/C2 cells to GI50 for human CCRF-CEM cells. It is filed as functional.
Assay [8] can be described thus: Cytotoxicity against human CCRF-CEM/C2 cells after 48 hrs by cell titer-blue assay. It is filed as functional, cell-based.
The test system of assay [9] is CCRF-CEM. In words: Cytotoxicity against human CCRF-CEM cells after 48 hrs by cell titer-blue assay. Type of assay: functional, cell-based.
Assay [10] is described as follows: Cytotoxicity against human HL60/MX2 cells after 48 hrs by cell titer-blue assay. It is filed as functional, cell-based. The note with it: HL60/MX2, 48 h.
The test system of assay [11] is HL-60. In words: Cytotoxicity against human HL60 cells after 48 hrs by cell titer-blue assay. It is filed as functional, cell-based. The settings on record: HL-60, 48 h.
The subject of assay [12] is HL-60. In words: Ratio of GI50 for human HL60/MX2 cells to GI50 for human HL60 cells. It is filed as functional.
Assay [13] concerns NALM-6. The assay can be described thus: Induction of apoptosis in human NALM6 cells assessed as PARP cleavage at 50 uM after 24 hrs. It is filed as functional, cell-based.
The mark [14] stands for this setting: Homo sapiens, NALM-6, 48 h, read-out: IC50.
Where [15] appears, read: Homo sapiens, REH, 48 h, read-out: IC50.

The structures appear in SMILES notation. ≈ marks a conversion by molar mass, not a printed value. Calls of active or inactive are those of the source. The rule behind the calls is not given here.

Bcl-2-like protein 1, sequence (Q07817 whole entry): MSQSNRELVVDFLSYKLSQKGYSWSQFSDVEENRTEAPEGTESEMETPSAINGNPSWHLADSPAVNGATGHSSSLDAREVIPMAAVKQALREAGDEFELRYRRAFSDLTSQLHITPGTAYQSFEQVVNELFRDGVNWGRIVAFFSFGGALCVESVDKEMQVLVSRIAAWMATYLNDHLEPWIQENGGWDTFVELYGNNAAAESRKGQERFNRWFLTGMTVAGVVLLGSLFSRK
Induced myeloid leukemia cell differentiation protein Mcl-1, sequence (Q07820 whole entry): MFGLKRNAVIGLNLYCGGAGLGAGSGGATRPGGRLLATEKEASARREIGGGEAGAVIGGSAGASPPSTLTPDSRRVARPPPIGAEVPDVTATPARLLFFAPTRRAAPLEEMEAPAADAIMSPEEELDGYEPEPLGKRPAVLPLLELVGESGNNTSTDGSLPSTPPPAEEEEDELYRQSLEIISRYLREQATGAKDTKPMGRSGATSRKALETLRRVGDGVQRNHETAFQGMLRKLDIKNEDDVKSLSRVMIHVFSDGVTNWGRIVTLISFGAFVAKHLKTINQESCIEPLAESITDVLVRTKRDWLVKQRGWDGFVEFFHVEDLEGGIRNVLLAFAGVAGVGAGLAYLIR

Regarding `Cc1cc2c(C(C)C)c(O)c(O)c(C=O)c2c(O)c1-c1c(C)cc2c(C(C)C)c(O)c(O)c(C=O)c2c1O` [GOSSYPOL], the Ki in assay [1] worked out at 0.00654 mM.

Regarding `CCOC(=O)C1=C(N)Oc2ccc(-c3ccccc3)cc2C1CC(=O)N(CC)CC` (centres undefined), it took 49.6 µM to reach half-maximal inhibition with Jurkat (IC50).

For `CCOC(=O)CC1C(C(=O)OCC)=C(N)Oc2ccc(-c3ccc4ccccc4c3)cc21` (centres undefined), in the assay on Jurkat, the IC50 turned out to be 18.7 µM.

On to `CCOC(=O)CC1C(C(=O)OCC)=C(N)Oc2ccc(-c3cc(OC)cc(OC)c3)cc21` (centres undefined), for which the IC50 with MCF7 turned out to be 15.5 µM; in [2], 10.9 µM; with NALM-6 [3] (setting [14]), 4.74 µM; with DU-145, 11.5 µM; in the assay on REH (setting [15]), 4.16 µM; in the assay on Jurkat, 1.2 µM. Also, the values for the IC50 (in the assay on NCI-H460; in the assay on HCT-116; in [6]) were 5.14 µM, 8.83 µM and 7.03 µM, respectively. The Ki was found to be 1240 µM at Bcl-2-like protein 1 and 42 mM in [1]. Further, the Activity entry with NALM-6 [4] and with NALM-6 [5] was “Dose-dependent effect” throughout.

`CCOC(=O)CC1C(C(=O)OCC)=C(N)Oc2c(-c3ccccc3)cccc21` (centres undefined): the IC50 with Jurkat was found to be 49.8 µM.

As to `CC[C@@]1(O)C(=O)OCc2c1cc1n(c2=O)Cc2cc3ccccc3nc2-1` [CAMPTOTHECIN], in the assay with CCRF-CEM [7], the RatioGI50 is 1879. Moreover, it took 43.2 nM to inhibit growth in assay [8] by half (GI50).

With `CC[C@]1(O)C[C@H]2CN(CCc3c([nH]c4ccccc34)[C@@](C(=O)OC)(c3cc4c(cc3OC)N(C=O)[C@H]3[C@@](O)(C(=O)OC)[C@H](OC(C)=O)[C@]5(CC)C=CCN6CC[C@]43[C@@H]65)C2)C1` [VINCRISTINE], the values for the EC50 (in the assay on CCRF-CEM [9]; in assay [10]; in [8]) were 597 nM, 60.9 nM and 367 nM, respectively.

In turn, `CCOC(=O)CC1C(C(=O)OCC)=C(N)Oc2cc(-c3ccccc3)ccc21` (centres undefined) displayed an IC50 in the assay on Jurkat of 51.6 µM.

As for `CCOC(=O)C1=C(N)Oc2ccc(-c3ccccc3)cc2C1CC(=O)N1CCOCC1` (centres undefined), in the assay on Jurkat, the IC50 was above 100 µM.

As to `CCCc1ccc2c(c1)C(CC(=O)OCC)C(C(=O)OCC)=C(N)O2` (centres undefined), the IC50 in the assay on Jurkat was determined as 57.3 µM.

For `Nc1nc2[nH]cnc2c(=S)[nH]1` [THIOGUANINE], the half-maximal effective concentration (EC50) with HL-60 [11] was determined as 3900 nM; in the assay on CCRF-CEM [9], 870 nM; in [10], 3650 nM; in assay [8], 942 nM.

`CCOC(=O)CC1C(C(=O)OCC)=C(N(C(C)=O)C(C)=O)Oc2ccc(-c3ccccc3)cc21` (centres undefined): the IC50 in the assay with Jurkat worked out at 70.6 µM.

As for `CCOC(=O)CC1C(C(=O)OCC)=C(N)Oc2ccc(Br)cc21` (centres undefined), in the assay on Jurkat, the midpoint of inhibition, the IC50, lay at 57.3 µM.

As to `O=C1c2c(O)ccc(O)c2C(=O)c2c(NCCNCCO)ccc(NCCNCCO)c21` [MITOXANTRONE], the GI50 came to 0.192 µg/mL (≈ 0.432 µM) in the assay on HL-60 [11] and 4.42 µg/mL (≈ 9.94 µM) in [10]. Further, in the assay with HL-60 [12], the RatioGI50 is reported as 23.

Regarding `CCOC(=O)CC1C(C(=O)OCC)=C(N)Oc2ccc(-c3cc(O)cc(OC)c3)cc21` (centres undefined), in the assay with Jurkat, 4.2 µM corresponded to half-maximal inhibition (IC50).

In turn, `CCOC(=O)C1=C(N)Oc2ccc(-c3ccccc3)cc2C1CC(=O)N1CCCCC1` (centres undefined) gave an IC50 in the assay with Jurkat of 58.5 µM.

As to `COc1cccc2c1C(=O)c1c(O)c3c(c(O)c1C2=O)C[C@@](O)(C(=O)CO)C[C@@H]3O[C@H]1C[C@H](N)[C@H](O)[C@H](C)O1` [DOXORUBICIN], the EC50 in the assay on HL-60 [11] stood at 1510 nM; with CCRF-CEM [9] it was 465 nM; in assay [10] it was 8050 nM; in assay [8], 3080 nM.

Turning to `CN(C)CC[C@H](CSc1ccccc1)Nc1ccc(S(=O)(=O)NC(=O)c2ccc(N3CCN(Cc4ccccc4-c4ccc(Cl)cc4)CC3)cc2)cc1[N+](=O)[O-]` [ABT 737], the IC50 is 21.3 µM in the assay on MCF7; 8.68 µM in [2]; “Not Active” in the assay on NALM-6 [3] (nalm-6); 27.6 µM with DU-145; “Not Active” in the assay with REH (reh); 1.38 µM in the assay on Jurkat. The IC50 in the assay with NCI-H460 came out at 8.03 µM; with HCT-116, 4.06 µM; in assay [6], 4.24 µM.

As to `CCOC(=O)CC1C(C(=O)OCC)=C(N)Oc2ccc(-c3ccccc3)cc21` (centres undefined), the IC50 in the assay with MCF7 stood at 18.9 µM; in assay [2] it was 22.8 µM; with NALM-6 [3] (setting [14]), 44.2 µM; in the assay with DU-145, 14.7 µM; in the assay on REH (setting [15]) it was 20.2 µM; in the assay with NCI-H460 it was 15.5 µM. Also, the IC50 in the assay on HCT-116 was determined as 18.5 µM; in [6] it was 18.7 µM. For the same compound, the Ki on Bcl-2-like protein 1 is 344 µM. For the same compound, the outcome with NALM-6 [13] was inactive. The Activity entry with NALM-6 [5] is “Dose-dependent effect”.

As to `CCOC(=O)CC1C(C#N)=C(N)Oc2ccc(-c3ccccc3)cc21` (centres undefined), in the assay on Jurkat, the IC50 came out at 52.5 µM.

`CCOC(=O)CC1C(C(=O)OCC)=C(N)Oc2ccc(-c3cc(O)cc(O)c3)cc21` (centres undefined): the IC50 in the assay on Jurkat stood at 18.3 µM.

The compound `CC(C)OC(=O)CC1C(C(=O)OC(C)C)=C(N)Oc2ccc(-c3ccccc3)cc21` (centres undefined) yielded an IC50 in the assay on Jurkat of 38.7 µM.

`CCOC(=O)CC1C(C(=O)OCC)=C(N)Oc2ccccc21` (centres undefined): half-maximal inhibition in the assay with Jurkat (IC50) required 91.4 µM.

Turning to `CCOC(=O)CC1C(C(=O)OCC)=C(N)Oc2ccc(-c3cccc4ccccc34)cc21` (centres undefined), half-maximal inhibition in the assay with Jurkat (IC50) was put at 5.83 µM.

In turn, `CCOC(=O)CC1C(C(=O)OCC)=C(NC(C)=O)Oc2ccc(-c3ccccc3)cc21` (centres undefined) came in with an IC50 in the assay on Jurkat of 67.7 µM.

In turn, `CCOC(=O)CC1C(C(=O)OCC)=C(N)Oc2cccc(-c3ccccc3)c21` (centres undefined) returned an IC50 with Jurkat of 44.3 µM.

As to `CCOC(=O)CC1C(C(=O)OCC)=C(N)Oc2ccc(-c3ccc(C(C)(C)C)cc3)cc21` (centres undefined), it took 35.5 µM to reach half-maximal inhibition with Jurkat (IC50).

Compound `CCOC(=O)CC1C(C(=O)OCC)=C(N)Oc2ccc(-c3cc(OC)c(OC)c(OC)c3)cc21` (centres undefined) returned an IC50 with Jurkat of 13.6 µM.

For the compound `Nc1ccn([C@@H]2O[C@H](CO)[C@@H](O)[C@@H]2O)c(=O)n1` [CYTARABINE], the EC50 in the assay with HL-60 [11] was determined as 657 nM; in the assay with CCRF-CEM [9] it was 5.61 nM; in assay [10] it was 261 nM; in assay [8], 22.8 nM.

`CCOC(=O)C1=C(N)Oc2ccc(-c3ccccc3)cc2C1CC(=O)N1CCNCC1` (centres undefined) gave an IC50 in the assay on Jurkat of 53.7 µM.

Source of the values: ChEMBL document CHEMBL1153537, “Structure-activity relationship and molecular mechanisms of ethyl 2-amino-4-(2-ethoxy-2-oxoethyl)-6-phenyl-4h-chromene-3-carboxylate (sha 14-1) and its analogues” (J Med Chem, 2009).
